In US11248013B2, “Tricyclic inhibitors of poly(ADP-ribose)polymerase” (Rakovina Therapeutics Inc., priority 2011, dated 2022):

target: PARP-1 (Homo sapiens (Human), UniProt P09874); assay: PARP-1 Enzyme Assay (HT Universal Colorimetric PARP Assay Kit); type: biochemical; details: OD450, read-out: IC50 (PARP-1 inhibition)
Method: Inhibition of PARP-1 enzymatic activities was measured using an HT Universal Colorimetric PARP Assay Kit (Trevigen, catalogue #4677-096-K) following the standard procedures.
Serial dilutions of PARP compounds were added to appropriate wells. The compound was incubated with PARP enzyme at RT for 10 min, and the reaction was initiated by addition of the PARP substrate cocktail, Each concentration of compound was tested in triplicate wells. After 15 min reaction, the reaction was stopped, and the Strep-HRP was added into each well and incubated for 1 h at RT. After addition of TACS-Sapphire™ colorimetric substrate and incubated in dark for 15 min, the OD450 was read out with an EnVision instrument. IC50 values (the concentration at which 50% of the enzyme activity is inhibited) were calculated, which are determined over a range of different concentrations, normally from 10 μM to 0.1 nM.

PARP-1, sequence (P09874 whole entry): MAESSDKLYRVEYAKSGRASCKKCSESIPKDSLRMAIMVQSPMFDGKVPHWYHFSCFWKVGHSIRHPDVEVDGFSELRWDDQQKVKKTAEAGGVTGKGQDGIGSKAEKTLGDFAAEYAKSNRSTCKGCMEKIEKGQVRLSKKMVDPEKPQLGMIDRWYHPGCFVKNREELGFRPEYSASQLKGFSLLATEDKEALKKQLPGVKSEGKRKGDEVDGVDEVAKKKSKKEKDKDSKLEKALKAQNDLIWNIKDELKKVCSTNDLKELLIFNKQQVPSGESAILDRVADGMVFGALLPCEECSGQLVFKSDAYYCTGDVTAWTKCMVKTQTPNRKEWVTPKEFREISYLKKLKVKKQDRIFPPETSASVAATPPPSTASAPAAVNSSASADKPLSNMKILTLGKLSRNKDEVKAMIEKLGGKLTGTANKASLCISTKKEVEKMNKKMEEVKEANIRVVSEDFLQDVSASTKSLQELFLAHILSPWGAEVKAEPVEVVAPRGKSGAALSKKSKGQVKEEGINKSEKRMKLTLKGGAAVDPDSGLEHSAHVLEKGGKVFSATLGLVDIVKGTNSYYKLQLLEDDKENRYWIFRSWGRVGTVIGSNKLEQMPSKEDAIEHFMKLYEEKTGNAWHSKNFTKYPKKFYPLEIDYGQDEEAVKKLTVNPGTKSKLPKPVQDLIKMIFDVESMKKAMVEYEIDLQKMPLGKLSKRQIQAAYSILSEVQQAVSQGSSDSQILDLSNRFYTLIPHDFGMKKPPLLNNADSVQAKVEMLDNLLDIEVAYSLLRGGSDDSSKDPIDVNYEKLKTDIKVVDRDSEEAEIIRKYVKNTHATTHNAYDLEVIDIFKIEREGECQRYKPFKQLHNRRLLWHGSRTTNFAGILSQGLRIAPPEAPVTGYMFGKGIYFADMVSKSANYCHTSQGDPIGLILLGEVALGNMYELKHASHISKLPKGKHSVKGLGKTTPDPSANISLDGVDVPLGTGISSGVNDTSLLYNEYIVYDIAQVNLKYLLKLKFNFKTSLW

For `CC(C)CCN1CCP(=O)(c2cc(Cc3n[nH]c(=O)c4ccccc34)ccc2F)CC1` [Example 48], which IC50 is on record?
Its IC50 is less than 100 nM.

Which IC50 does the source give for `O=C(C1CCCC1)N1CCP(=O)(c2cc(Cc3n[nH]c(=O)c4ccccc34)ccc2F)CC1` [Example 2, 4-(3-(1-(cyclopentanecarbonyl)-4-oxido-1,4-azaphosphinan-4-yl)-4-fluorobenzyl)phthalazin-1 (2H)-one] here?
The IC50 was 1000 to 10000 nM.

With `O=c1[nH]nc(Cc2ccc(F)c(P3(=O)CCN(CC(F)(F)F)CC3)c2)c2ccccc12` [Example 49, 4-(4-fluoro-3-(4-oxido-1-(2,2,2-trifluoroethyl)-1,4-azaphosphinan-4-yl)benzyl)phthalazin-1(2H)-one] as the compound, how does the IC50 read?
The IC50 was less than 100 nM.

For `O=c1[nH]nc(C(O)c2ccc(F)c(P3(=O)CCN(C4CC4)CC3)c2)c2ccccc12` (racemic) [Example 58, (±)-4-[(3-(1-cyclopropyl-4-oxido-1,4-azaphosphinan-4-yl)-4-fluoro-1-phenyl)(hydroxymethyl)]phthalazin-1(2H)-one], which IC50 is on record?
Its IC50 is less than 100 nM.

With `CCCN1CCP(=O)(c2cc(Cc3n[nH]c(=O)c4ccccc34)ccc2F)CC1` [Example 45] as the compound, how does the IC50 read?
The IC50 was less than 100 nM.

For `O=c1[nH]nc(Cc2ccc(F)c(P3(=O)CCN(c4cccc(F)n4)CC3)c2)c2ccccc12` [Example 25, 4-(4-fluoro-3-(1-(6-fluoropyridin-2-yl)-4-oxido-1,4-azaphosphinan-4-yl)benzyl)phthalazin-1(2H)-one], which IC50 is on record?
The IC50 was less than 100 nM.

`O=c1[nH]nc(Cc2ccc(F)c(P3(=O)CCN(c4ncccc4C(F)(F)F)CC3)c2)c2ccccc12` [Example 27, 4-(4-fluoro-3-(4-oxido-1-(3-(trifluoromethyl)pyridin-2-yl)-1,4-azaphosphinan-4-yl)benzyl)phthalazin-1(2H)-one] was tested. Which IC50 did it give?
The IC50 was 100 to 1000 nM.

For `O=c1[nH]nc(Cc2ccc(F)c(P3(=O)CCN(c4ncc(F)cn4)CC3)c2)c2ccccc12` [compound 35, 4-(4-fluoro-3-(4-oxido-1-(5-(fluoro)pyrimidin-2-yl)-1,4-azaphosphinan-4-yl)benzyl)phthalazin-1(2H)-one], which IC50 is on record?
The IC50 was less than 100 nM.

For `O=c1[nH]nc(Cc2ccc(F)c(P3(=O)CCN(CC4CC4)CC3)c2)c2ccccc12` [Example 43, 4-(3-(1-(cyclopropylmethyl)-4-oxido-1,4-azaphosphinan-4-yl)-4-fluorobenzyl)phthalazin-1(2H)-one], which IC50 is on record?
Its IC50 is less than 100 nM.

Which IC50 does the source give for `CC(C)(C)CN1CCP(=O)(c2cc(Cc3n[nH]c(=O)c4ccccc34)ccc2F)CC1` [Example 47, 4-(4-fluoro-3-(1-neopentyl-4-oxido-1,4-azaphosphinan-4-yl)benzyl)phthalazin-1(2H)-one] here?
Its IC50 is 100 to 1000 nM.

How did the IC50 turn out when `CN1CCP(=O)(c2cc(Cc3n[nH]c(=O)c4ccccc34)ccc2F)CC1` [Example 40, 4-(4-fluoro-3-(1-methyl-4-oxido-1,4-azaphosphinan-4-yl)benzyl)phthalazin-1(2H)-one] was run?
Its IC50 is 100 to 1000 nM.

How did the IC50 turn out when “4-(3-(1-(cyclobutanecarbonyl)-4-oxido-1,4-azaphosphinan-4-yl)-4-fluorobenzyl)phthalazin-1(2H)-one [Example 4]” was run?
The IC50 was less than 100 nM.

“4-(3-(1-(3,3-difluoropyrrolidine-1-carbonyl)-4-oxido-1,4-azaphosphinan-4-yl)-4-fluorobenzyl)phthalazin-1(2H)-one [Example 6]” was tested. Which IC50 did it give?
Its IC50 is less than 100 nM.

`O=c1[nH]nc(Cc2ccc(F)c(P3(=O)CCN(c4ccc(Cl)nn4)CC3)c2)c2ccccc12` [Example 13, 4-(3-(1-(6-chloropyridazin-3-yl)-4-oxido-1,4-azaphosphinan-4-yl)-4-fluorobenzyl)phthalazin-1(2H)-one] was tested. Which IC50 did it give?
Its IC50 is less than 100 nM.

With “4-(3-(1-(cyclopropanecarbonyl)-4-oxido-1,4-azaphosphinan-4-yl)-4-fluorobenzyl)phthalazin-1(2H)-one [Example 3]” as the compound, how does the IC50 read?
Its IC50 is less than 100 nM.

`O=c1[nH]nc(Cc2ccc(F)c(P3(=O)CCN(c4ccccn4)CC3)c2)c2ccccc12` [Example 19, 4-(4-fluoro-3-(4-oxido-1-(pyridin-2-yl)-1,4-azaphosphinan-4-yl)benzyl)phthalazin-1(2H)-one] was tested. Which IC50 did it give?
Its IC50 is less than 100 nM.

Which IC50 does the source give for `CC(C)(C)CN1CCP(=O)(c2cc(Cc3n[nH]c(=O)c4ccccc34)ccc2F)CC1` [Example 46, 4-(4-fluoro-3-(1-neopentyl-4-oxido-l,4-azaphosphinan-4-yl)benzyl)phthalazin-1(2H)-one] here?
The IC50 was less than 100 nM.

For `O=c1[nH]nc(Cc2ccc(F)c(P3(=O)CCN(c4cc(C(F)(F)F)ccn4)CC3)c2)c2ccccc12` [Example 26, 4-(4-fluoro-3-(4-oxido-1-(4-(trifluoromethyl)pyridin-2-yl)-1,4-azaphosphinan-4-yl)benzyl)phthalazin-1(2H)-one], which IC50 is on record?
The IC50 was less than 100 nM.

With `O=c1[nH]nc(Cc2ccc(F)c(P3(=O)CCN(c4ncc(Cl)cn4)CC3)c2)c2ccccc12` [Example 36, 4-(4-fluoro-3-(4-oxido-1-(5-(chloro)pyrimidin-2-yl)-1,4-azaphosphinan-4-yl)benzyl)phthalazin-1(2H)-one] as the compound, how does the IC50 read?
Its IC50 is less than 100 nM.

With “4-(4-fluoro-3-(4-oxido-1-(tetrahydrofuran-2-carbonyl)-1,4-azaphosphinan-4-yl)benzyl)phthalazin-1(2H)-one [Example 7]” as the compound, how does the IC50 read?
Its IC50 is 100 to 1000 nM.

Which IC50 does the source give for `O=c1[nH]nc(Cc2ccc(F)c(P3(=O)CCN(c4ncc(F)cc4F)CC3)c2)c2ccccc12` [Example 28, 4-(4-fluoro-3-(1-(3,5-difluoropyridin-2-yl)-4-oxido-1,4-azaphosphinan-4-yl)benzyl)phthalazin-1(2H)-one] here?
Its IC50 is less than 100 nM.

With `O=c1[nH]nc(Cc2ccc(F)c(P3(=O)CCN(Cc4ccccc4)CC3)c2)c2ccccc12` [Example 1, 4-(3-(1-benzyl-4-oxido-1,4-azaphosphinan-4-yl)-4-fluorobenzyl)phthalazin-1(2H)-one] as the compound, how does the IC50 read?
The IC50 was less than 100 nM.

With `O=c1[nH]nc(Cc2ccc(F)c(P3(=O)CCN(C4CC4)CC3)c2)c2ccccc12` [Example 38, 4-(3-(1-cyclopropyl-4-oxido-1,4-azaphosphinan-4-yl)-4-fluorobenzyl)phthalazin-1(2H)-one] as the compound, how does the IC50 read?
The IC50 was less than 100 nM.

With `O=C(N1CCCC1)N1CCP(=O)(c2cc(Cc3n[nH]c(=O)c4ccccc34)ccc2F)CC1` [Example 10] as the compound, how does the IC50 read?
The IC50 was 100 to 1000 nM.

target: intracellular PARP enzyme (Homo sapiens, UniProt P09874); assay: PARP Cell Assay (IHC, intracellular poly(ADP)-ribose formation in C41 cells); type: cell-based; details: C41 cells (Human cervical carcinoma), 2 h compound, 1.0 mM H2O2 for 10 min; read-out: EC50 (TARP cell assay)
Sequence (P09874 2-1014 limits assumed): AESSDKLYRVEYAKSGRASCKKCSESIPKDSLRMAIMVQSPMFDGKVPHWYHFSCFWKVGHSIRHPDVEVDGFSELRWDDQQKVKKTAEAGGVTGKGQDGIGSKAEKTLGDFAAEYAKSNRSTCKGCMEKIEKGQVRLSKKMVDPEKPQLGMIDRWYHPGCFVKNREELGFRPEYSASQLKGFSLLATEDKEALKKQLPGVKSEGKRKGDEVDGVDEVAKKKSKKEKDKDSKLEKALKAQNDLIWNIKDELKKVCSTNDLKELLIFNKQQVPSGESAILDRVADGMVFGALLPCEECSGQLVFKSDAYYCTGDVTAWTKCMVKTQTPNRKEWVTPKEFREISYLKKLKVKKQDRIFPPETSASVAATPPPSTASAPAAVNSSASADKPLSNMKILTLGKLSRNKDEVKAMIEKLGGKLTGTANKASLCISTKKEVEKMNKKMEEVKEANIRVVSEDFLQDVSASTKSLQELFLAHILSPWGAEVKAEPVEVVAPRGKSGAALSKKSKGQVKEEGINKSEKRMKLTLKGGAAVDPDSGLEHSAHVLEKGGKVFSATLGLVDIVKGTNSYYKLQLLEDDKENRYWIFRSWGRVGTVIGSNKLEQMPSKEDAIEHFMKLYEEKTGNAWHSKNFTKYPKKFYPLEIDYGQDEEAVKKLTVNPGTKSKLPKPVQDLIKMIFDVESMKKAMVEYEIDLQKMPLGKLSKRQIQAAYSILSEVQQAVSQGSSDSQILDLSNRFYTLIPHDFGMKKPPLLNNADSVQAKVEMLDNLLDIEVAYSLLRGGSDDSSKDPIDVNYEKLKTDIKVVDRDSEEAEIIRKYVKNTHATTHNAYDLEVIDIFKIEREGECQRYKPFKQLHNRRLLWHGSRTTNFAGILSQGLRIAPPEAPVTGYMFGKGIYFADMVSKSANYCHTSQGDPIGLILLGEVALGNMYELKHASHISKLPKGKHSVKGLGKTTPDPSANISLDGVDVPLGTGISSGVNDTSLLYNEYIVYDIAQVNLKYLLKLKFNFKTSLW
Method: Inhibition of intracellular PARP enzyme was determined using an immunohistochemistry (IHC) assay. The cellular assay measures the formation of poly (ADP)-ribose catalyzed by PARP inside cells.
Anti-PAR (Ab-1) Mouse mAb (10H) (Calbiochem, AM-80); Anti-Mouse IgG (whole molecule)-FITC antibody produced in goat (sigma, F2012); DAPI (sigma, D9542).
The C41 cells (Human cervical carcinoma; ATCC No. CRL-1594) were planted into 96-well plates at 8.0E4 cells/well and incubated at 37° C. overnight. Cells were washed with 37° C. warmed PBS once and treated with test compounds for 2 h in 96-well plates. Cells were washed with 37° C. warmed PBS once, and PARP was activated by damaging DNA with 1.0 mM H2O2 for 10 min. Cells were washed with ice-cold PBS once and fixed with pre-chilled methanol/acetone (7:3) at −20° C. for 10 min. After air-drying, plates were rehydrated with PBS and blocked using 5% nonfat dry milk in PBS-Tween (0.05%) (block solution) for 30 min at room temperature. […] After washing with PBS-Tween20.5 times, analysis was performed using Vector 3 Microplate Reader (PerkinElmer) set at the excitation (485 nm) and emission (535 nm) wavelength for FITC or the excitation (364 nm) and emission (454 nm) wavelength for DAPI. […]

`CC(C)CCN1CCP(=O)(c2cc(Cc3n[nH]c(=O)c4ccccc34)ccc2F)CC1` [Example 48] was tested. Which EC50 did it give?
Its EC50 is 100 to 1000 nM.
